Source: paper PMC12526156, “Optimization of the Macrocyclic Tetrapeptide [D-Trp]CJ-15,208 to Prevent Stress-Induced Relapse of Cocaine-Seeking Behavior” (Molecules, 2025)
≈ marks a conversion by molar mass, not a printed value. Where a SMILES comes first, the peptide text is derived from it. [ ]: non-standard residue; d: D form. dPhe(3,4,5-F3) = N[C@H](Cc1cc(F)c(F)c(F)c1)C(=O)O; dPhe(F5) = N[C@H](Cc1c(F)c(F)c(F)c(F)c1F)C(=O)O; dPhe(3,4-F2) = N[C@H](Cc1ccc(F)c(F)c1)C(=O)O; dPhe(4-NH2) = Nc1ccc(C[C@@H](N)C(=O)O)cc1; dPhe(4-Me) = Cc1ccc(C[C@@H](N)C(=O)O)cc1

Key:
hKOR [1] = molecular target: T1, hKOR (Homo sapiens, UniProt P41145); experiment: Competition binding, [3H]U69,593, hKOR-CHO membranes; details: for Ki: [3H]U69,593, human KOR, ± S.E.M., three independent experiments, read-out: KOR Ki
C57BL/6J mice = experiment: 55 °C warm-water tail-withdrawal assay, antinociception; format: in vivo, mouse
Description: For intracerebroventricular administration, peptides were dissolved in DMSO at a concentration of 20 mM (100 nmol/5 µL), then diluted to test doses in a final vehicle solution of 50%DMSO/50% saline (0.9%). For all other testing (for oral administration), peptides were made fresh each day for testing in a final vehicle solution of 10% DMSO/10% Solutol/80% saline (0.9%).
Intracerebroventricular injections were made directly into the lateral ventricle according to the modified steps detailed previously. The volume of all i.c.v. injections was 5 μL, using a 10 μL Hamilton microliter syringe. The mouse was lightly anesthetized with isoflurane, an incision was made in the scalp, and the injection was made 2 mm lateral and 2 mm caudal to bregma at a depth of 3 mm.
The dose response of analogs 3, 6, 9 and 14 were also assessed following administration of one of up to four additional oral (p.o.) doses (1–30 mg/kg).

human MOR = molecular target: T2, human MOR (Homo sapiens, UniProt P35372); experiment: biochemical; format: binding; details: [3H]DAMGO, human MOR; ± S.E.M., three independent experiments; read-out: MOR Ki
T2 construct: expressed in transfected cells

hKOR [2] = molecular target: T1, hKOR; experiment: KOR cAMP assay using GloSensor-22F, agonist mode (KOR-CHO-GLO cells); format: cell-based; details: read-out: KOR Efficacy (%)
hKOR [3] = molecular target: T1, hKOR; experiment: KOR cAMP assay using GloSensor-22F, antagonist mode (vs 10 nM U50,488); format: cell-based
Source text: A piggy-Bac (PB) transposon/transposase system was utilized to allow for the stable integration of the GloSensor-22F cAMP sensor (Promega, Madison, WI, USA) gene into genomic TTAA sites in Chinese hamster ovary cells already stably expressing the hKOR. The pFastBac hyperPB plasmid vector, which codes for the piggy-Bac transposon/transposase system, was utilized and was a kind gift from Dr. John Lueck. The multicistronic expression cassette developed for our experiments consisted of a CMV promoter driving constitutive expression of GloSensor-22F cAMP sensor, followed by an internal ribosome entry site (IRES) to drive the expression of codon-optimized HygR-P2A-mScarlet (hygromycin resistance gene and mScarlet separated by a 2A self-cleaving peptide element). To clone the expression cassette onto the pFastBac vector, the CMV promoter and GloSensor-22F were PCR amplified from pGloSensor-22F cAMP Plasmid (Promega), the IRES sequence was PCR amplified from pLVX-CMV-Galpha-oA ONE-GO (a gift from Dr. Mikel Garcia-Marcos, Addgene plasmid #189732), the HygR-P2A-mScarlet sequence was a kind gift from Dr. Lueck, and a bGH-poly(A) termination sequence was PCR amplified from pcDNA3.1(+). The pFastBac vector was linearized via overnight digestion with CspCI at 37 °C, which cuts between two inverted terminal repeat (ITR) sequences, and the corresponding backbone and all PCR fragments were gel purified and assembled via Gibson assembly using the Gibson Assembly MasterMix (New England Biolabs, Ipswich, MA, USA). The resulting pFastBac CMV GloSensor-22F IRES HygR-P2A-mScarlet bGH plasmid was transformed into NEB Stable Competent E. coli (New England Biolabs), miniprepped using the E.Z.N.A. Plasmid DNA Mini Kit (Omega Bio-Tek, Norcross, GA, USA), and sequence verified by nanopore whole-plasmid sequencing (Eurofins Genomics, Louisville, KY, USA).
3.0 × 10^6 hKOR-CHO cells were plated on a 6 cm dish and incubated for four h at 37 °C and 5% CO2 in DMEM (Corning Mediatech, Manassas, VA, USA) supplemented with 5% FBS (Corning Mediatech), 1% Penicillin/Streptomycin (Gibco, Waltham, MA, USA). The cells were then transfected with 2.0 μg pFastBac CMV GloSensor-22F IRES HygR-P2A-mScarlet bGH using PEI as a transfection reagent. The following day, transfected cells were reseeded onto a 10 cm dish at a density of 5.0 × 10^5 cells and 600 μg/mL hygromycin B (Gold Bio, St. Louis, MO, USA) was added to the culture media. Cells were cultured under selection antibiotics for seven days, and the selection process was monitored by the increase in abundance of mScarlet positive cells via epifluorescence microscopy.
Following the selection period, KOR-CHO-GLO cells were maintained at 37 °C and 5% CO2 in DMEM supplemented with 5% FBS, 1% Penicillin/Streptomycin and 300 μg/mL hygromycin B to reduce the likelihood of CMV promoter silencing. On the day of the assay, cells were detached with 0.05% trypsin (Gibco) and counted, then centrifuged (1000× g, 5 min) and resuspended in assay buffer (1xPBS, 0.1% glucose, 0.5 mM MgCl2) containing 4 mM D-luciferin substrate (Gold Bio) at approximately 2 million cells/mL. 25 μL of cells (~50,000/well) were seeded onto poly L-lysine-coated white 96-well flat bottom plates (Greiner Bio-One, Kremsmünster, Austria)) and returned to the incubator for 60 min. Following incubation, cells were allowed to equilibrate to room temperature protected from light (10–15 min). Initial luminescence readings (at least 10 cycles) were collected for each well using a FLUOstar Omega v.6.2 plate reader (BMG Labtech, Ortenberg, Germany), after which the plate was removed. Prepared 4x treatments of drug (25 μL) were added to appropriate wells followed by 50 μL of 20 μM forskolin (AmBeed, Buffalo Grove, IL, USA) before the plate was returned to the reader and luminescence measured until final plateau levels were achieved (20–30 min). Assays were performed in duplicate and repeated at least three times.

[4] = Metabolic stability in human liver microsomes; format: in vitro ADME; details: 1 mg protein/mL; for half-life at 1 µM / microsomal CLint at 1 µM: human liver microsomes
Description: (§1) Evaluation of the metabolic stability of the macrocyclic tetrapeptides by human and mouse liver microsomes was performed by Curia Global (Buffalo, NY, USA). […]

[5] = Metabolic stability in mouse liver microsomes; format: in vitro ADME; details: 1 mg protein/mL; for half-life at 1 µM / microsomal CLint at 1 µM: mouse liver microsomes
Description: as §1

[6] = Kinetic aqueous solubility; format: physicochemical; details: 1% DMSO, pH 7.4
Source text: Table A1 Stability of [D-Trp]- and [D-Phe^4]CJ-15,208 and selected analogs in human (HLMs) and mouse liver microsomes (MLMs)^1. and kinetic aqueous solubility. | column: Solubility ^2 / (µM)

[7] = 30 mg/kg, p.o., 30 min after administration
[8] = 1 µM compound, 37 °C, read-out: HLM t1/2
[9] = 1 µM compound, 37 °C, read-out: MLM t1/2

O=C1N[C@H](Cc2c(F)c(F)c(F)c(F)c2F)C(=O)N[C@@H](Cc2ccccc2)C(=O)N2CCC[C@@H]2C(=O)N[C@H]1Cc1ccccc1 [Analog 12] (cyclo(F[dP]F[dPhe(F5)]))
fold decrease in KOR affinity (fluorine substitution on D-Phe^4) (hKOR [1]): 13 fold
Ki (hKOR [1]): 310 ± 9.9 nM

Nc1ccc(C[C@H]2NC(=O)[C@H](Cc3ccccc3)NC(=O)[C@H]3CCCN3C(=O)[C@H](Cc3ccccc3)NC2=O)cc1 [Analog 17] (cyclo(F[dP]F[dPhe(4-NH2)]))
inhibition at 10 µM (hKOR [1]; at 10 μM): 65%

COc1ccc(C[C@H]2NC(=O)[C@H](Cc3ccccc3)NC(=O)[C@H]3CCCN3C(=O)[C@H](Cc3ccccc3)NC2=O)cc1 [Analog 18, [D-Tyr(Me)^4]CJ-15,208] (cyclo(F[dP]F[dY](Me)))
Ki (hKOR [1]): 150 ± 16 nM
antinociception vs vehicle (C57BL/6J mice; [7]): significant antinociception

O=C1N[C@H](Cc2ccc(F)c(F)c2)C(=O)N[C@@H](Cc2ccccc2)C(=O)N2CCC[C@@H]2C(=O)N[C@H]1Cc1ccccc1 [Analog 8] (cyclo(F[dP]F[dPhe(3,4-F2)]))
Selectivity (MOR Ki/KOR Ki) (hKOR [1]): 9
Ki (hKOR [1]): 6.6 ± 0.73 nM
Ki (human MOR): 57 ± 5.6 nM
Emax at 10 µM (hKOR [2]): 13 ± 2.7%
IC50 (hKOR [3]): 170 ± 28 nM
half-life at 1 µM [4, 8]: 2.2 min
microsomal CLint at 1 µM ([4]; read-out: HLM CLint): 309 µL/min/mg
half-life at 1 µM [5, 9]: 1.1 min
microsomal CLint at 1 µM ([5]; read-out: MLM CLint): 629 µL/min/mg
solubility kinetic [6]: 9.5 µM (≈ 5.46 µg/mL)
antinociception vs vehicle (C57BL/6J mice; [7]): significant antinociception

CN1CC[C@]23c4c5ccc(O)c4O[C@H]2[C@@H](O)C=C[C@H]3[C@H]1C5 [morphine, reference compound]
antinociception vs vehicle (C57BL/6J mice; 30 nmol, i.c.v., positive control): significant antinociception
antinociception vs vehicle (C57BL/6J mice; [7]): significant antinociception

Cc1ccc(C[C@H]2NC(=O)[C@H](Cc3ccccc3)NC(=O)[C@H]3CCCN3C(=O)[C@H](Cc3ccccc3)NC2=O)cc1 [Analog 15] (cyclo(F[dP]F[dPhe(4-Me)]))
Emax at 10 µM (hKOR [2]): 18 ± 1.4%
half-life ([4]; microsomes, 1 µM compound, 37 °C, read-out: HLM t1/2): 5.4 min
microsomal CLint ([4]; microsomes, read-out: HLM CLint): 129 µL/min/mg
half-life ([5]; microsomes, 1 µM compound, 37 °C, read-out: MLM t1/2): 2.9 min
microsomal CLint ([5]; microsomes, read-out: MLM CLint): 236 µL/min/mg
solubility kinetic [6]: 24 µM (≈ 13.3 µg/mL)

O=C1N[C@H](Cc2cc(F)c(F)c(F)c2)C(=O)N[C@@H](Cc2ccccc2)C(=O)N2CCC[C@@H]2C(=O)N[C@H]1Cc1ccccc1 [Analog 11] (cyclo(F[dP]F[dPhe(3,4,5-F3)]))
Selectivity (MOR Ki/KOR Ki) (hKOR [1]): 4
Ki (hKOR [1]): 12 ± 0.44 nM
Ki (human MOR): 46 ± 5.4 nM
Emax at 10 µM (hKOR [2]): 2.2 ± 6.2%
IC50 (hKOR [3]): 160 ± 19 nM
half-life at 1 µM [4, 8]: 1.6 min
microsomal CLint at 1 µM ([4]; read-out: HLM CLint): 447 µL/min/mg
half-life at 1 µM [5, 9]: 2.9 min
microsomal CLint at 1 µM ([5]; read-out: MLM CLint): 238 µL/min/mg
solubility kinetic [6]: 4.8 µM (≈ 2.84 µg/mL)
